Experiments:
HEK293 cells = assay: mWasabi fluorescence assay (protein expression of capped mRNA) in HEK293 cells; assay type: cell-based; conditions: mWasabi encoding mRNA capped with the cap analog, 24 hours post transfection, 12.5 ng mRNA per well
Description: (§1) Wasabi and FLuc mRNAs capped with cap analog ARCA, cap analog A-1, cap analog A-2, cap analog 3′OMe, or cap analog A-Control (see Table 2) were prepared as described in International Patent Publication Nos. WO2017053297 and WO2023147352 which are incorporated herein by reference in their entirety.
(§2) The IVT template was used to prepare mWasabi encoding mRNA (970 nucleotides) with cap analogs A-control, 3′OMe, A-1 or A-2 by in-vitro transcription. The mRNAs were purified prior to use in assays described below. Protein expression was measured by Allele Biotechnology in cell-based assays.
(§3) mWasabi Fluorescence Assay:
(§4) The day before transfection: cells were seeded as follows: • HEK293 cells: 6.25×10^4/cm^2 • HeLa cells: 3.125×10^4/cm^2 • The cells were dissociated with TrypLE • HEK293 cells were seeded in 96 well plates coated with Poly-D-Lysine (50 μL at 100 μg/mL per well). • HeLa cells were seeded in 96 well plates (no coating required). • The cells were seeded in 100 μL of growth media (Growth Media: DMEM+10% FBS supplemented with GlutaMAX and MEM Non-Essential Amino Acids).
(§5) The day of transfection: Opti-MEM and MessengerMax Transfection Reagent were allowed to reach room temperature. Two tubes were set up for each mRNA (i.e., for each cap analog). […]
(§6) mWasabi fluorescent expression was quantified using Cytation 10 after 24 hours.

HeLa cells = assay: mWasabi fluorescence assay (protein expression of capped mRNA) in HeLa cells; assay type: cell-based; conditions: mWasabi encoding mRNA capped with the cap analog, 24 hours post transfection, 12.5 ng mRNA per well
Description: as §1, §2, §3, §4, §5, §6

Substance: ^N7-(4-chlorobenzyl)G3′OMeppp^m6A2′OMepG [Compound A-1]
- fluorescence intensity (i.e., protein expression levels) (HEK293 cells): comparable to that of mRNA capped with Cap 3′OMe or mRNA capped with A-control, and much higher than that of mRNA capped with ARCA cap
- fluorescence intensity (i.e., protein expression levels) (HeLa cells): comparable to that of mRNA capped with Cap 3′OMe or mRNA capped with A-control, and much higher than that of mRNA capped with ARCA cap

Substance: ^m7, N2-butylG3′OMeppp^m6A2′OMepG [Compound A-2]
- fluorescence intensity (i.e., protein expression levels) (HEK293 cells): comparable to that of mRNA capped with Cap 3′OMe or mRNA capped with A-control, and much higher than that of mRNA capped with ARCA cap
- fluorescence intensity (i.e., protein expression levels) (HeLa cells): comparable to that of mRNA capped with Cap 3′OMe or mRNA capped with A-control, and much higher than that of mRNA capped with ARCA cap

From patent US20250388620A1, “EFFICIENT METHOD FOR MAKING HIGHLY PURIFIED 5’- CAPPED OLIGONUCLEOTIDES” (TriLink BioTechnologies, LLC, priority 2022, published 2025)
